According to US5962504A, “Substituted 2-pyrrolidinone activators of PKC” (Georgetown University, priority 1998, dated 1999):

Columns and labels:
[1] = molecular target: PKC; test: ability of representative compounds to activate PKC (Ki, Table 1; procedure similar to Kozikowski et al. J. Med. Chem. 1997); type: binding; settings: read-out: Ki ± SEM
[2] = test system: PKC; settings: background statement; cited from earlier work

SMILES	Ki [1]	PKC activation, isozyme selectivity [2]
CC(C)[C@H]1C(=O)N[C@H](CO)[C@@H]1c1ccccc1 [Compound 4a, (3R, 4S, 5S)-3-Isopropyl-4-phenyl-5-(hydroxymethyl)pyrrolidin-2-one]	129 µM	
CCCCCCCCCc1ccc([C@@H]2[C@@H](C(C)C)C(=O)N[C@@H]2CO)cc1 [Compound 4b, (3R, 4S, 5S)-3-Isopropyl-4-(4-nonylphenyl)-5-(hydroxymethyl)-pyrrolidin-2-one]	2.3 ± 0.2 µM	
CC(C)[C@H]1C(=O)N[C@H](CO)[C@@H]1c1cccc2ccccc12 [Compound 11a, (3R,4S,5S)-3-Isopropyl-4-(1-naphthyl)-5-(hydroxymethyl)pyrrolidin-2-one]	5.5 µM	
CCCCCC(=O)Oc1ccc([C@@H]2[C@@H](C(C)C)C(=O)N[C@@H]2CO)c2ccccc12 [Compound 11b, (3R,4S,5S)-3-Isopropyl-4-(4-hexanoyloxynaphth-1-yl)-5-(hydroxymethyl)pyrrolidin-2-one]	0.5 ± 0.04 µM	
CC1=C[C@H]2[C@@]3(O)[C@H](C)C[C@]4(OC(=O)Cc5ccccc5)[C@H]([C@@H]3C=C(CO)C[C@]2(O)C1=O)C4(C)C [Dpp, 12-deoxyphorbol 13-phenylacetate]		isozyme-selective activators of PKC
